Measured values taken from patent US11787775B2, “Therapeutic compounds and methods of use” (priority 2020, dated 2023).
Where two headings read alike, the source gives them in different places.

Columns and labels:
Assay in all cases: TEAD lipid pocket TR-FRET (Lipid HTRF) probe competition assay
Type in all cases: binding
TEAD1 = TEAD1 (Homo sapiens (Human), UniProt P28347)
Procedure: (§1) His-tagged TEAD proteins are pre-incubated with TEAD project compounds for 30 minutes or 4 hours at room temperature. Biotinylated lipid pocket probes are then added to the TEAD/Compound mixture and incubated for 60 minutes at room temperature. The lipid pocket probe competes with the test compound for the TEAD lipid pocket until equilibrium is reached. After 60 minutes, Europium labelled anti-His (Perkin Elmer #ADO 110) and XL665 labelled streptavidin (CIS Bio 610SAXAC) are added to the TEAD/test compound/lipid pocket mixture and incubated for 30 minutes or 4 hours. […] If a TEAD lipid pocket binder such as binds and displaces the lipid pocket probe, the disruption of the TEAD:probe interaction results in a decrease in TR-FRET signal. The potency of compounds as TEAD lipid pocket binders is determined by IC50 value generated using a non-linear 4 parameter curve fit.
(§2) Note that the “Compound Number” in Table 2 and Table 3 corresponds to the “Compound Number” in Table 1.

TEAD2 = TEAD2 (Homo sapiens (Human), UniProt Q15562)
Sequence of TEAD2 (Q15562 whole entry): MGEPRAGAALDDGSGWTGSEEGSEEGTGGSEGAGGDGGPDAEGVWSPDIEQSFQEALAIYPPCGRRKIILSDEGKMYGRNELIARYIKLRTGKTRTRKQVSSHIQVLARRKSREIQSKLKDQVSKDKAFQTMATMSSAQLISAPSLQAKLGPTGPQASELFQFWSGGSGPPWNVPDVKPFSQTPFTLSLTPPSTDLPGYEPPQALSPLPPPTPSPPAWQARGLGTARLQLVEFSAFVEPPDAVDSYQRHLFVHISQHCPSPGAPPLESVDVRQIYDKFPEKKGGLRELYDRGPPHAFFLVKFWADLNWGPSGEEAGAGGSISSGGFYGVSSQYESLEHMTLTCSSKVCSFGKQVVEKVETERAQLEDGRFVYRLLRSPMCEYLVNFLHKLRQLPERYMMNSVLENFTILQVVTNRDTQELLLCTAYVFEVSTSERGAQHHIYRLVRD
Procedure: as §1, §2

TEAD3 = TEAD3 (Homo sapiens (Human), UniProt Q99594); details: 4 hours incubation with compound
Sequence of TEAD3 (Q99594 whole entry, species assumed): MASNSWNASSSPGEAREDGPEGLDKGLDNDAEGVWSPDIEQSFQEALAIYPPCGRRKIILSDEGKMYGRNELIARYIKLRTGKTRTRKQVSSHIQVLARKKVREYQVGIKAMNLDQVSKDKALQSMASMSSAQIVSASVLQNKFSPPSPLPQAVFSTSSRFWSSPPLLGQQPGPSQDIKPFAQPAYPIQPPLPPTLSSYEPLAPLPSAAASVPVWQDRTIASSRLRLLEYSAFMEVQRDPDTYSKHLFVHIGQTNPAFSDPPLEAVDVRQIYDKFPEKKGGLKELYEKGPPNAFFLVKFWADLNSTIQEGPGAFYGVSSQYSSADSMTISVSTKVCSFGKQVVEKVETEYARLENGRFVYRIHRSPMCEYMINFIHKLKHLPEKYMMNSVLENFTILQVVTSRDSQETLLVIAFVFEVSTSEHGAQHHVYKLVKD
Procedure: as §1, §2

TEAD4 = TEAD4 (Homo sapiens (Human), UniProt Q15561)
Sequence of TEAD4 (Q15561 whole entry, species assumed): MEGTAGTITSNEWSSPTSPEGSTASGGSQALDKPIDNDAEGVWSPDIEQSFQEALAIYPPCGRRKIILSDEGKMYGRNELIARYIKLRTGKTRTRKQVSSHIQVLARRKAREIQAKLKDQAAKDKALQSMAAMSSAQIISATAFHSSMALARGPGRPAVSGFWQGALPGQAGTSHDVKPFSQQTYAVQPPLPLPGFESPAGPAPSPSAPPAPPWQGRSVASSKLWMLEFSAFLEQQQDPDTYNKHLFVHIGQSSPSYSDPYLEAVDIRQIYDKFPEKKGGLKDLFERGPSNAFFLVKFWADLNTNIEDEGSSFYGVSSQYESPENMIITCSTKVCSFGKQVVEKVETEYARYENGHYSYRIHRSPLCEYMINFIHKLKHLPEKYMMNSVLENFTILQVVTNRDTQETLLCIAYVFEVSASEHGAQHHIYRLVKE
Procedure: as §1, §2

[1] = 4 hours incubation with compound, read-out: Lipid HTRF TEAD1 IC50
[2] = 4 hours incubation with compound, read-out: Lipid HTRF TEAD2 IC50
[3] = 4 hours incubation with compound, read-out: Lipid HTRF TEAD4 IC50
[4] = Lipid HTRF TEAD4 IC50, 4 hours incubation with compound

Sequence of TEAD1 (P28347 whole entry, species assumed): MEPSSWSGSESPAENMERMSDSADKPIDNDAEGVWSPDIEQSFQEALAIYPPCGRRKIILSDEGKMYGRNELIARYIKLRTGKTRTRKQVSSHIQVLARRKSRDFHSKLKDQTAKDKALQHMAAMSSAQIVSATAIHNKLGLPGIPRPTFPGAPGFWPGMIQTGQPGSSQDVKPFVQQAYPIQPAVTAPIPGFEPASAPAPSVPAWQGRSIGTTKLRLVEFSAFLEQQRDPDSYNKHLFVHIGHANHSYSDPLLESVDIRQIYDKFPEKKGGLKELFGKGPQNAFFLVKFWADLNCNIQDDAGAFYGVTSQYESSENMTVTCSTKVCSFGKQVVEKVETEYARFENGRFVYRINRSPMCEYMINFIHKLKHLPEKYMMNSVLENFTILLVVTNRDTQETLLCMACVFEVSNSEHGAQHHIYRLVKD

| Compound | IC50 (TEAD1; [1]) [nM] | IC50 (TEAD2; [2]) [nM] | IC50 (TEAD3) [nM] | IC50 (TEAD4; [3]) [nM] | IC50 (TEAD4; [4]) [nM] | IC50 (TEAD1; Lipid HTRF TEAD1 IC50, 4 hours incubation with compound) [nM] | IC50 (TEAD2; Lipid HTRF TEAD2 IC50, 4 hours incubation with compound) [nM] |
| --- | --- | --- | --- | --- | --- | --- | --- |
| C=C(CNc1cc(-c2ccc(S(F)(F)(F)(F)F)cc2)c2c(c1C#N)CCO2)C(=O)O [Compound 45, 2-[[[4-cyano-7-[4-(pentafluoro-lambda6-sulfanyl)phenyl]-2,3-dihydrobenzofuran-5-yl]amino]methyl]prop-2-enoic acid] | 30 | 170 | 920 | 80 |  |  |  |
| C=C(CNc1cc(-c2ccc(OC(F)(F)F)cc2)c2c(c1CO)CCO2)C(N)=O [Compound 35, 2-[[[4-(hydroxymethyl)-7-[4-(trifluoromethoxy)phenyl]-2,3-dihydrobenzofuran-5-yl]amino]methyl]prop-2-enamide] | 160 | 30 | 1700 | 250 |  |  |  |
| C=C(CNc1cc(-c2cc(C(C)C)cs2)c2c(c1C#N)CCO2)C(=O)O [Compound 32, 2-[[[4-cyano-7-(4-isopropyl-2-thienyl)-2,3-dihydrobenzofuran-5-yl]amino]methyl]prop-2-enoic acid] | 10 | 40 | 430 | 10 |  |  |  |
| C=C(CNc1cc(-c2ccc(OC(F)(F)F)cc2)c2ncsc2c1C#N)C(=O)NO [Compound 41, 2-[[[7-cyano-4-[4-(trifluoromethoxy)phenyl]-1,3-benzothiazol-6-yl]amino]methyl]prop-2-enehydroxamic acid] | 80 | 10 | 660 | 40 |  |  |  |
| C=C(CNc1cc(-c2ccc(S(F)(F)(F)(F)F)cc2)c2ncsc2c1C#N)C(=O)NO [Compound 51, 2-[[[7-cyano-4-[4-(pentafluoro-lambda6-sulfanyl)phenyl]-1,3-benzothiazol-6-yl]amino]methyl]prop-2-enehydroxamic acid] | 200 | 30 | 1200 | 60 |  |  |  |
| C=C(CNc1cc(-c2nc(C(C)C)cs2)c2c(c1C#N)CCO2)C(=O)NO [Compound 31, 2-[[[4-cyano-7-(4-isopropylthiazol-2-yl)-2,3-dihydrobenzofuran-5-yl]amino]methyl]prop-2-enehydroxamic acid] | > 50000 | 860 | > 50000 | 36000 |  |  |  |
| [2H]C1([2H])COc2c(-c3ccc(C(C)C)cc3)cc(NCC(=C)C(N)=O)c(C#N)c21 [Compound 33, 2-[[[4-cyano-3,3-dideuterio-7-(4-isopropylphenyl)-2H-benzofuran-5-yl]amino]methyl]prop-2-enamide] | 180 | 60 | 1400 |  | 80 |  |  |
| C=C(CNc1cc(-c2ccc(OC(F)(F)F)cc2)c2c(c1C#N)CCO2)C(=O)NO [Compound 39, 2-[[[4-cyano-7-[4-(trifluoromethoxy)phenyl]-2,3-dihydrobenzofuran-5-yl]amino]methyl]prop-2-enehydroxamic acid] | 40 | 10 | 400 | 60 |  |  |  |
| [2H]C1([2H])COc2c(-c3ccc(C(C)C)cc3)cc(NCC(=C)C(=O)NO)c(C#N)c21 [Compound 29, 2-[[[4-cyano-3,3-dideuterio-7-(4-isopropylphenyl)-2H-benzofuran-5-yl]amino]methyl]prop-2-enehydroxamic acid] | 60 | 10 | 430 | 40 |  |  |  |
| C=C(CNc1cc(-c2ccc(OC(F)(F)F)cc2)c2c(c1C#N)CCO2)C(=O)N(C)O [Compound 43, 2-[[[4-cyano-7-[4-(trifluoromethoxy)phenyl]-2,3-dihydrobenzofuran-5-yl]amino]methyl]-N-hydroxy-N-methyl-prop-2-enamide] | 400 | 1700 | 18000 | 520 |  |  |  |
| C=C(CNc1cc(-c2ccc(S(F)(F)(F)(F)F)cc2)c2c(c1C#N)CCO2)C(=O)NO [Compound 38, 2-[[[4-cyano-7-[4-(pentafluoro-lambda6-sulfanyl)phenyl]-2,3-dihydrobenzofuran-5-yl]amino]methyl]prop-2-enehydroxamic acid] | 90 | 30 | 710 | 80 |  |  |  |
| C=C(CNc1cc(-c2ncc(C(C)C)s2)c2c(c1C#N)CCO2)C(=O)NO [Compound 27, 2-[[[4-cyano-7-(5-isopropylthiazol-2-yl)-2,3-dihydrobenzofuran-5-yl]amino]methyl]prop-2-enehydroxamic acid] | 310 | 110 | > 50000 | 170 |  |  |  |
| [2H]C1([2H])COc2c(-c3ccc(C(C)C)cc3)cc(NCC(=C)C(=O)O)c(C#N)c21 [Compound 40, 2-[[[4-cyano-3,3-dideuterio-7-(4-isopropylphenyl)-2H-benzofuran-5-yl]amino]methyl]prop-2-enoic acid] |  | 40 | 680 |  | 20 | 20 |  |
| C=C(CNc1cc(-c2ncc(C(C)C)s2)c2c(c1C#N)CCO2)C(=O)O [Compound 49, 2-[[[4-cyano-7-(5-isopropylthiazol-2-yl)-2,3-dihydrobenzofuran-5-yl]amino]methyl]prop-2-enoic acid] | 310 | 240 | 2800 | 90 |  |  |  |
| C=C(CNc1cc(-c2ccc(OC(F)(F)F)cc2)c2c(c1CO)CCO2)C(=O)NO [Compound 46, 2-[[[4-(hydroxymethyl)-7-[4-(trifluoromethoxy)phenyl]-2,3-dihydrobenzofuran-5-yl]amino]methyl]prop-2-enehydroxamic acid] | 50 | 10 | 440 | 60 |  |  |  |
| C=C(CNc1cc(-n2ccc(C(C)C)n2)c2c(c1C#N)CCO2)C(=O)NO [Compound 36, 2-[[[4-cyano-7-(3-isopropylpyrazol-1-yl)-2,3-dihydrobenzofuran-5-yl]amino]methyl]prop-2-enehydroxamic acid] | > 50000 | 710 | > 50000 | > 50000 |  |  |  |
| [2H]C1([2H])Cc2c(C#N)c(NCC(=C)C(=O)NO)cc(-c3ccc(OC(F)(F)F)cc3)c2O1 [Compound 37, 2-[[[4-cyano-2,2-dideuterio-7-[4-(trifluoromethoxy)phenyl]-3H-benzofuran-5-yl]amino]methyl]prop-2-enehydroxamic acid] | 50 |  | 420 | 50 |  |  | 10 |
| C=C(CNc1cc(-c2ccc(OC(F)(F)F)cc2)c2c(c1C#N)CCO2)C(N)=O [Compound 44, 2-[[[4-cyano-7-[4-(trifluoromethoxy)phenyl]-2,3-dihydrobenzofuran-5-yl]amino]methyl]prop-2-enamide] | 110 | 40 | 1200 | 140 |  |  |  |
| C=C(CNc1cc(-c2ccc(S(F)(F)(F)(F)F)cc2)c2c(c1C#N)CCO2)C(N)=O [Compound 48, 2-[[[4-cyano-7-[4-(pentafluoro-lambda6-sulfanyl)phenyl]-2,3-dihydrobenzofuran-5-yl]amino]methyl]prop-2-enamide] | 250 | 220 | 2600 | 260 |  |  |  |
